A short description of the data set: Evaluation of solubility of organic compound in hexane, toluene and dichloromethane. Format: physicochemical. To be noted: room temperature; for solubility compared with Compound 9: summary of Table 3, toluene, dichloromethane. The procedure: Evaluation of Solubility of Organic Compound
The solubility in hexane, toluene and dichloromethane was measured for the compounds of Synthesis Example 9, and Comparative Synthesis Examples 2 and 3.

Consider `Cc1ccc(C)c(N(c2cc(C(C)(C)C)ccc2C)c2ccc3ccc4c(N(c5cc(C)ccc5C)c5cc(C(C)(C)C)ccc5C)ccc5ccc2c3c54)c1` [Compound 1-B], for which the solubility in hexane entry is “Insoluble” and the “solubility compared with Compound 9” value was “significantly lower solubility than Compound 9”.
Take `CCc1cc(N(c2cc(C)ccc2C)c2cc(C(C)(C)C)ccc2C)c2ccc3c(CC)cc(N(c4cc(C)ccc4C)c4cc(C(C)(C)C)ccc4C)c4ccc1c2c34` [Compound 1-C]: the solubility in hexane result is given as “Insoluble” and the “solubility compared with Compound 9” value is reported as “significantly lower solubility than Compound 9”.

Values taken from patent US11107993B2, “Organic compound and organic electroluminescent element comprising same” (MATERIAL SCIENCE CO., LTD., priority 2015, dated 2021).
